Measured values as given in paper PMC5057504, “Amyloid-β 1–24 C-terminal truncated fragment promotes amyloid-β 1–42 aggregate formation in the healthy brain” (Acta Neuropathologica Communications, 2016).

Tests used:
[1] = ATR-FTIR spectroscopy of peptide assemblies; format: physicochemical; conditions: 100 μM peptide (mix 50 μM each), incubated at 37 °C in PBS, 20 min to 6 days; hydrated film
Description: The in vitro aggregation of Aβ samples was monitored by ThT assay (Fig. 6a–c). ThT fluorescence emission was recorded at different incubation times at 37 °C in physiological buffer. […] Further, we recorded the emission fluorescence spectra of the samples incubated for 96 h at 37 °C after tyrosine excitation at 270 nm, which is also able to produce ThT fluorescence. […] The secondary structures of the peptide assemblies were also investigated by Fourier transform infrared (FTIR) spectroscopy in attenuated total reflection (ATR) (Fig. 6d). […] During incubation at 37 °C of H-Aβ42, this component increased in intensity while that at ~1695 cm^−1 decreased (Fig. 6d). These spectral changes have been already observed in the fibrillogenesis of Aβ peptides and of other proteins, and assigned to the conformational conversion towards fibrillar structures with a parallel orientation of the intermolecular β-sheets. […]
For the ATR-FTIR measurements, 2 μL of Aβ42 (at 100 μM concentration), of Aβ24 (at 100 μM concentration), or of the equimolar mixture of the two peptides (at 50 μM concentration each) were deposed on the single reflection diamond element of the ATR device (Quest, Specac, UK). Spectra were recorded after solvent evaporation to allow the formation of an hydrated film as previously described. […]

wt mice brain = assay: Intracranial injection in wt mice: amyloid aggregate deposition (6E10 DAB, Congo red, ThT staining); format: in vivo, mouse; conditions: for ThT-positive aggregates in brain sections: 2.5 months after i.c. injection; for 6E10-positive aggregates in brain, 6 months after injection: i.c. injection of oligomeric peptide, 6E10 followed by HRP
Description: Mice were anesthetized and perfused with 0.9 % saline, followed by 4 % PFA. The 30 μm cryosections of brain were blocked in PBS containing 10 % goat serum and 0.1 % Triton X-100 for 1 h at room temperature before being incubated overnight at 4 °C with primary antibodies. The following day, the slides were rinsed in PBS and incubated at room temperature for 1 h with secondary antibody. The slides were processed using the ABC detection kit (Vector Laboratories). […] Immunofluorescence and ThT staining were performed on brain sections. Brain slices were washed three times in PBS and incubated for 1 h at room temperature in blocking solution (3 % BSA). Subsequently, the slides were washed 3 times and incubated overnight with specific antibodies. The next day, sections were washed in PBS and incubated for 2 h at room temperature with specific fluorochrome-conjugated secondary antibodies diluted in 3 % BSA in the dark. ThT solution was prepared as described above. Final solution was added to free floating slides for 1 min and very quickly washed with 80 % methanol followed by 3 washes with distilled water. Images were acquired by Virtual Slides microscope (VS120, Olympus). For quantification, both diffuse-plaques and dense-core plaques were considered, as described in [92]. Small dots and deposits at the slice edge were not counted. The entire surface of the slice was examined. For congo red histological staining, slices were air-dried on glass overnight, then stained with a 0.2 % congo red solution according to [93]. Specimens were acquired by transmittance polarized light microscopy, FITCH filtered epifluorescence. For quantification, bright field images were analyzed by color segmentation plugin-ImageJ software (NIH, Bethesda, MD). The entire area of deposits was considered.

TNF-alpha = TNF-alpha ELISA in serum and brain of intracranially injected wt mice; format: in vivo, mouse; conditions: wt mice 2.5 months after i.c. injection
Description: Stereotaxic intracranial injections in mice brains were made under a mixture of ketamine (100 mg/kg) and xylazine (10 mg/kg) anesthesia. After surgical exposure of dura mater, both the bregma and the skull surface served as the stereotaxic zero points. Using a Hamilton syringe, 4 μL of H-Aβ or vehicle (vehicle consists of physiological buffer−50 mM NaPi, 100 mM NaCl pH 7.4−) were injected into the neocortex (AP 1 mm, ML 2 mm, DV−2 mm) with a speed of 1.5 μL/min, the needle was kept in place for an additional minute before it was slowly drawn out. For each experiment 4 pmol of H-Aβ42, 4 pmol of H-Aβ24 and 2 pmol of H-Aβ42 plus 2 pmol of H-Aβ24 for the mix condition were injected, as described in [70, 90]. Different conditions were used for specific experiments as specified in the text. After suturing the incision, mice were maintained on a warm pad until recovery from the anesthesia, then returned to their cages.

wt mice = assay: Behavioral tests (open field, social interaction, novel object recognition) after intracranial injection; format: in vivo, mouse; conditions: wt mice i.c. injected, compared with vehicle and age matched APP/PS1 mice
Description: Mice were placed in a multi-unit open field maze (ViewPoint instruments) with field chamber (25 cm long and 25 cm wide), and activity was recorded using ViewPoint video tracking software. Each quadrant was digitally divided into a peripheral and a central region using ViewPoint video tracking software. The central quadrants are collectively referred to as the center zone and peripheral quadrants are collectively referred to as the peripheral zone. Data were collected continually for 30 min and the distance traveled (cm), velocity (cm/s), and the distance traveled in the center zone versus the peripheral zone were all recorded and scored automatically. In the open field task ambulatory movements (valued as distance traveled and movement speeds) and anxiety-like behaviors (as the as distance traveled in the center zone versus the peripheral zone) can be assessed in response to a novel environment.
The social interaction test was used to measure how mice respond to a social partner during a 5-min test following isolation housing. Since isolation housing potentiates expression of innate territorial defensive responses, in this test we evaluated the reaction of mice to the presence of a new animal in free conditions in the same arena. […]
The test apparatus consisted of an open field box measuring 50 cm × 25 cm and all sessions were video-recorded. […]

murine Aβ = biological target: T1, murine Aβ (Mus musculus, UniProt P12023); assay: Immunoblot of brain homogenate fractions with murine-Aβ-specific antibody m3.2; format: in vivo; conditions: wt mice analyzed 4 months after i.c. injection; supernatant and pellet
T1 construct: co-aggregation of the injected peptide and endogenously produced mouse Aβ42, retained in the brain; from tissue; host or cells: brain homogenate (supernatant and pellet fractions) of injected wild-type mice
T1 sequence (P12023 672-713 limits assumed): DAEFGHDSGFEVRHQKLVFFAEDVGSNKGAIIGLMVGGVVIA
Description: Animals were anesthetized and perfused with PBS before brains were removed, weighted and homogeneted in a mild hypotonic buffer (50 mM Tris pH 8, 150 mM NaCl, 5 mM EDTA supplemented with phosphatase and protease inhibitor, EDTA-free, Roche). Supernatants were then centrifuged for 1 h at 3000 × g to pellet insoluble material, including insoluble Aβ species. Samples were either frozen on dry ice or LDS sample buffer (Invitrogen) containg 5 % β-mercaptoethanol was immediately added. Pellets were directly resuspended in 20 μl of LDS sample buffer. 10 μl sample were loaded onto a Bolt 4–12 % Bis-Tris Plus Gels (Thermo Fisher) for Western Blot evaluation. Samples were separated using MES buffer and transferred onto a […] nitrocellulose membrane (Bio-Rad). Membranes were washed in TBS-Tween (150 mM NaCl, 50 mM Tris and 0.1 % (v/v) Tween-20) and incubated for 45 min at room temperature in blocking solution (5 % milk or 2.5 % serum bovine albumin in TBST). Membranes were subsequently probed overnight at 4 °C with primary antibodies diluted in TBS-T buffer. Membranes were washed extensively and incubated for 45 min at room temperature with horseradish peroxidase-conjugated (HRP) secondary antibody diluted in TBST buffer. Antibody-specific signals were detected using enhanced chemiluminescence reagents (Clarity Western ECL substrate, Bio-Rad).

Description for bEnd.3 cells: (ATCC® CRL2299™) were used as a representative BBB model. bEnd.3 cells were cultured at 37 °C, 5 % CO2/saturated humidity in DMEM supplemented with 10 % heat-inactivated fetal bovine serum (FBS), 1 % penicillin-streptomycin.
bEnd.3 cells were seeded at a concentration of 30000 cells/cm^2 onto geltrex-coated (thin layer; Gibco) transwell inserts (polycarbonate, 12 mm diameter, 3 μm pore size; Costar) until a monolayer was established.
To assess Aβ42 exchange across the BBB model, bEnd.3 cells were cultured upside-down on a transwells system as described above, until steady-state TEER had been reached. […] The level of fluorescence in the media collected was measured for 488-Aβ42 (λex = 503 nm and λem = 528 nm) or for FAM-Aβ42 (λex = 492 nm and λem = 518 nm) using a Synergy™ H4 Hybrid Multi-Mode Microplate Reader (BioTek). Relative fluorescence units were converted to concentration according to prepared standard, and were corrected for background fluorescence. […] Briefly, Aβ42 volume cleared (ΔVc) was calculated using the equation ΔVc = Clower × Vlower/Cupper, where Cupper and Clower are fluorescently-labeled Aβ42 concentrations in the donor and receiving compartments, respectively, and Vlower is the volume on the basolateral side. […] Permeability coefficients (P) were calculated by dividing against the surface area of the filter (1.12 cm^2). […]
Description for primary microglia: Primary microglia were obtained from mixed cultures prepared from the cerebral cortex of mice at the postnatal day 1 (P1-3). Microglia cells were isolated by shaking flasks for 45 min at 230 rpm at day 10 after plating. Cells were then seeded on poly-L-ornithine (Sigma) pre-coated wells at the density of 1,5×10^5 cell/mL in DMEM containing 20 % heat-inactivated fetal bovine serum (FBS) and incubated at 37 ° C in a humidified atmosphere of 5 % CO2 and 95 % air. Where indicated, cells were pre-treated for 45 min with protease inhibitors and EDTA 2.5 mM (Roche) which were directly added to the cell culture medium. […] When not differently indicated, for in vitro experiments microglia were treated with H-Aβ42 400 nM.
Aliquots of supernatant samples (200 μL) were loaded on nitrocellulose membrane Trans-Blot Transfer Medium (0.22 μm, Bio-Rad), by vacuum deposition on the Bio-Dot SF blotting apparatus (Bio-Rad). Serial dilution curves of Aβ42 synthetic protein were preliminarily run to obtain non-saturating condition of immunodetection. DB dots images were analysed by Image Lab™ software (Bio-Rad).
Aβ42 levels were determined using specific ELISA kit (Amyloid-beta (x-42) ELISA IBL, International) following manufacturer’s instructions. Briefly, 100 μL of sample was added into the pre-coated plate and was incubated overnight at 4 °C. After washing each well of the pre-coated plate, 100 μL of labeled antibody solution was added and the mixture was incubated for 1 h at 4 °C in the dark. After washing, chromogen was added and the mixture was incubated for 30 min at room temperature in the dark. After the addition of stop solution, the resulting color was assayed at 450 nm using a microplate absorbance reader (Synergy H4 Synergy™ H4 Microplate Reader, BioTek).

| Substance | Internalization by microglia (primary microglia; primary microglia, 1 μM, 3 h of treatment) | ATR-FTIR Amide I band (secondary structure of the assemblies) [1] | ThT-positive aggregates in brain sections (wt mice brain) | 6E10-positive aggregates in brain, 6 months after injection (wt mice brain; 4 pmol (mix 2 + 2 pmol)) | TNF-alpha levels in serum and brains (TNF-alpha) | Behavioral phenotype (open field, sociality task, NOR) (wt mice) | Extracellular Aβ42 in microglia medium, ELISA with capture antibody 6E10 (N-terminal), detection 4G8 (primary microglia) | Extracellular Aβ42 in microglia medium, ELISA with capture antibody against the C-terminal domain (primary microglia) | Extracellular Aβ42 in microglia medium, dot blot with C-terminal anti-Aβ42 (primary microglia) | 6E10-positive aggregates in brain, 2.5 months after injection (wt mice brain; i.c. injection, 4 pmol (mix 2 + 2 pmol)) | m3.2 positive bands (murine Aβ) in brain homogenate fractions (murine Aβ) | Effect of H-Aβ24 on the diffusion of fluorescently labeled scrambled H-Aβ42 (bEnd.3 cells) | H-Aβ42 apical-to-basolateral passage when pre-incubated with H-Aβ24, dot blot (bEnd.3 cells) |
| --- | --- | --- | --- | --- | --- | --- | --- | --- | --- | --- | --- | --- | --- |
| HiLyte Fluor™ 488-labeled Beta-Amyloid (1–42) [488-conjugated H-Aβ42] | efficiently internalized |  |  |  |  |  |  |  |  |  |  |  |  |
| Synthetic human Aβ1–42 [H-Aβ42] |  | higher intensity of the ~1628 cm^−1 peak | only ThT-positive blood vessels | did not cause Aβ deposition | much less | some behavioral alterations | lack of changes | significant decrease | reduction of extracellular Aβ42 |  |  |  |  |
| synthetic human Aβ1-24 peptide [H-Aβ24] |  | two main peaks at ~1695 cm^−1 and ~1628 cm^−1 | ThT-positive aggregates were detected | induced the formation of aggregates | significant increase | cognitive defects comparable to APP/PS1 mice |  |  |  | already detectable | presence of m3.2 positive bands | No effect | decreased amount of H-Aβ42 |
